≈ marks a conversion by molar mass, not a printed value. Where “and” joins values, the source holds several entries; their conditions need not be identical. Identical values can stand only once. Like-named read-outs stand apart in the source and are kept apart here.
Columns and labels:
[1] = cited from earlier work
[2] = Gravimetric vapour sorption (GVS), hygroscopicity; format: physicochemical; conditions: 25° C.
Description: Gravimetric vapour sorption (GVS) was used to determine the hygrocopicity of the samples: experiments were performed at 25° C. using a DVS 1 instrument from SMS Ltd to record adsorption-desorption isotherms using different methods, the main features being: a single sorption/desorption cycle from 0 to 80% RH in 10% RH steps with a dm/dt trigger value of 0.002% (dm/dt=change in mass with time—when the balance stability is within this value the next step is automatically started, however, if those conditions are not achieved there is a default maximum time for each step of 6 hours). The sample amount used was 1-3 mg.

[3] = parameters: species or system male Wistar (Hannover) rats; conditions: rat, in vivo, iv
Description: (§1) In accordance with Swedish legislations for preclinical in vivo studies in rodents and following evaluation and approval of the experimental procedures the local ethical committee (M388-12), following acclimatization to the housing conditions for a minimum of 7 days after arrival, male Wistar (Hannover) rats (Taconic, Denmark), average weight 180-200 g; average age 8-10 weeks, were treated with test items (see Table 2); 12-16 h prior to dosing all food except for an amount equivalent to a half day consumption was removed. The test items were administrated using a soft gavage tube (p.o.) or by injecting the test item in the tail vein (i.v). The volume given was 10 mL/kg (p.o.) or 1 mL/kg (i.v.). Before i.v administration the rats were anesthetized using isoflurane. The rats were conscious during sample collection and the blood was taken from the sub-lingual vein. Blood samples were collected from each rat over a period of up to 24 h. At each time point two aliquots of 50 μL each was added to a vial containing 150 μL of sterile water. The samples were mixed immediately and stored in −18° C. until preparation for bioanalysis commenced. All formulations were prepared on the same day that dosing took place. The body weight of the rat was recorded before dosing. The weight of the syringe was recorded before and after administration to allow calculation of the actual amount of test sample delivered. The actual doses were used during the evaluation of the data.
(§2) The plasma levels of sulfasalazine were determined using LCMS/MS in mrm (multiple reaction monitoring) mode.
Samples and standards were injected by a HTC PAL from CTC analytics into an LC system from Shimadzu consisting of a high pressure gradient system of two LC-10 AD pumps controlled by a SCL-10A controller from Shimadzu. The samples were separated using reverse-phase chromatography with gradient elution at a flow rate of 0.8 mL/min. Mobile phases were A:94.9/5/0.1 water/acetonitrile/formic acid and B:[…] water/acetonitrile/formic acid. Gradient started at 0% B and increased linearly to 100% B in 4 minutes, 100% B was kept for 0.5 minutes and then the system returned to 0% B in 0.1 minutes. The system was equilibrated for 1.4 minutes until the total run time of 6 minutes. The eluent was analyzed by a Quattro Ultima from Micromass equipped with an electrospray ion source. Data was collected and calibrations were calculated by MassLynx 4.0 software. […] The eluent was ionized by negative ion electrospray and the mrm transition from 397 to 197 m/z was monitored. […]
Positive and negative mode MS/MS was employed for sulfasalazine. […] Samples with analyte concentrations above the upper limit of quantification were diluted with matrix to reach within the assay range. […]

[4] = Pharmacokinetics of sulfasalazine in rat, oral administration; format: in vivo, male Wistar (Hannover) rats; conditions: 60 mg/kg
Description: as §1, §2
Samples and standards were injected by a HTC PAL from CTC analytics into an LC system from Shimadzu consisting of a high pressure gradient system of two LC-10 AD pumps controlled by a SCL-10A controller from Shimadzu. The samples were separated using reverse-phase chromatography with gradient elution at a flow rate of 0.8 mL/min. Mobile phases were A:94.9/5/0.1 water/acetonitrile/formic acid and B:[…] water/acetonitrile/formic acid. Gradient started at 0% B and increased linearly to 100% B in 4 minutes, 100% B was kept for 0.5 minutes and then the system returned to 0% B in 0.1 minutes. The system was equilibrated for 1.4 minutes until the total run time of 6 minutes. The eluent was analyzed by a Quattro Ultima from Micromass equipped with an electrospray ion source. Data was collected and calibrations were calculated by MassLynx 4.0 software. […] The eluent was ionized by negative ion electrospray and the mrm transition from 397 to 197 m/z was monitored.
The diluted blood sample (50 μL blood, 150 μL water) was thawed and mixed. 400 μL of Acetonitrile, to precipitate the protein was added and mixed again. The sample was centrifuged at 5,000 g for 5 minutes. 100 μL of the supernatant was transferred to a 300 μL glass vial and 100 μL of water was added to reduce the acetonitrile concentration.
Positive and negative mode MS/MS was employed for sulfasalazine. The concentration of the standard curve was in the range from 5 nM to 15625 nM. Samples with analyte concentrations above the upper limit of quantification were diluted with matrix to reach within the assay range. A non-compartmental analysis (NCA) was performed using the Phoenix WinNonLin analysis tool.

[5] = Solubility in water or FaSSIF-V2 medium (Example 8, HPLC)
Description: The mobile phase consists of mobile phase (A): 1.13 g sodium dihydrogen phosphate and 2.5 g sodium acetate are dissolved in 1000 mL purified water. The pH is afterwards adjusted with acetic acid (100%) to 4.8. and mobile phase (B): 1 part mobile phase A is mixed with 4 parts of methanol for chromatography. The flow rate was 1.0 mL/min, injection volume 5 μL and detection wavelengths 320 nm (HP DAD series 1100). Run time is 10 min. Quantitation was performed using external standard methodology. The assay method has been validated with respect to selectivity, repeatability and linearity. Samples are prepared with dilute ammonia R3 PhEur.
The saturated solutions were filtrated using centrifuge filters (Nylon, […]) and the clear supernatants were respectively injected either directly or after dilution with dilute ammonia R3 PhEur.

[6] = Transport across Caco 2 cell monolayer; format: in vitro ADME; conditions: human, direction ab (apical to basal), 180 min incubation
[7] = cited from earlier work; remark: listed apart in the source
[8] = tested on: binding of TNF-alpha to its receptor; conditions: 125I-TNF-alpha displacement; cited from earlier work
[9] = Solubility in de-ionized water (HPLC); conditions: 24 °C, thermodynamic from solid
Description: The flow rate was 1.0 mL/min, injection volume 5 μL and detection wavelengths 358 nm (for assay) and 260 nm (for chromatographic purity). Quantitation was performed using external standard methodology. The assay method has been validated with respect to selectivity, repeatability and linearity.

[10] = male, Wistar (Hannover), whole blood

For `Nc1ccc(S(=O)(=O)Nc2ccccn2)cc1` [sulfapyridine], the systemic bioavailability ([1]; metabolite formed from non-absorbed sulfasalazine by gut flora) is given as “about 60%”.

In the case of `CCNCC.O=C(O)c1cc(N=Nc2ccc(S(=O)(=O)Nc3ccccn3)cc2)ccc1O` [Form A diethylamine salt, Diethylamine 2-hydroxy-5-[2-[4-[(2-pyridinylamino)sulfonyl]phenyl]diazenyl]-benzoate], the “water vapor uptake (GVS)” value ([2]; 30% RH) is reported as 0.3 % w/w and the “water vapor uptake (GVS)” value ([2]; 80% RH) is reported as 0.5 % w/w.

With `CNCC(O)C(O)C(O)C(O)CO.O=C(O)c1cc(N=Nc2ccc(S(=O)(=O)Nc3ccccn3)cc2)ccc1O` [Form A meglumine salt] the “water vapor uptake (GVS)” value ([2]; 30% RH, listed as Example 1) was < 0.4 % w/w, the “water vapor uptake (GVS)” value ([2]; 30% RH, listed as Example 2) was 0.4 % w/w and the “water vapor uptake (GVS)” value ([2]; 80% RH, listed as Example 1) was < 0.9 % w/w. The “water vapor uptake (GVS)” value ([2]; 80% RH, listed as Example 2) was 1.1 % w/w, the AUCinf obs ([3]; 1 mg/kg) was 1,661 ± 191 h*nM and the T1/2 ([3]; 1 mg/kg) was 1.2 h. For the same compound, the AUCinf obs ([3]; 5 mg/kg) was 11,889 ± 735 h*nM, the T1/2 ([3]; 5 mg/kg) was 1.3 h and the F ([4]; in vivo) was 3.8%. The T1/2 ([4]; in vivo) was 1.9 ± 0.5 h and the Solubility ([5]; pH 6.8) was 60300 µg/mL.

For `O=C(O)c1cc(/N=N/c2ccc(S(=O)(=O)Nc3ccccn3)cc2)ccc1O` [sulfasalazine, 2-hydroxy-5-[2-[4-[(2-pyridinylamino)sulfonyl]phenyl]diazenyl]-benzoic acid], the Papp A→B at 180 min, 50 μg/mL ([6]; 50 μg/mL) was 1.39 ×10⁻⁶ cm/s, the Papp A→B at 180 min, 200 μg/mL ([6]; 200 μg/mL) was 1.16 ×10⁻⁶ cm/s and the F ([4]; male, Wistar (Hannover), in vivo) was 2.5%. It also gave a Cmax [4, 10] of 700 ± 110 nM, a Tmax [4, 10] of 0.72 ± 0.57 h and an AUC ([4]; male, Wistar (Hannover), whole blood, p.o., read-out: AUC0.1, 5 h obs) of 0.81 ± 0.13 µM·h. It also gave an AUC ([4]; male, Wistar (Hannover), whole blood, p.o., read-out: AUCall) of 2.81 ± 0.41 µM·h, a half-life ([4]; male, Wistar (Hannover), whole blood, p.o.) of 2 ± 0.5 h and a Solubility ([5]; FaSSIF-V2, room temperature (20-25° C.), saturated solution) of 780 µg/mL (≈ 1960 µM). The solubility at 24 h ([5]; water, pH 5.9, water, thermodynamic from solid) was 60 µg/mL (≈ 151 µM), the “solubility, United States Pharmacopoeia class practically insoluble” value ([7]; USP classification) was < 100 µg/mL and the “solubility in de-ionized water” value ([7]; de-ionized water at 24° C., literature value) was 30 µg/mL and 31 µg/mL. The solubility in water ([7]; water) was “less than 5 mg/100 ml”, the half-life ([1]; intravenously administered) was “approximately 7.6±3.6 hours” and the “time of median peak concentration” value ([1]; man, oral) was 6 h. For the same compound, the “binding of TNF-alpha to its receptor” value [8] was “inhibits” and the Solubility [9] was 60 µg/mL (≈ 151 µM).
